{"source": "patent US20200270309A1", "about": "“MALEIMIDE GROUP-MODIFIED ANGIOGENESIS INHIBITOR HM-1 AND USE THEREOF” (NANJING ANJI BIOLOGICAL TECHNOLOGY CO., LTD, priority 2017, published 2020)", "key": {"[1]": {"test_system": "retinal vascular endothelial nuclei", "assay": "Neovascularization in a rat model of premature retinopathy", "format": "in vivo, rats", "conditions": "dose 0.05 μM in the vitreous chamber from day 7 of modeling for one week; counted on day 14; oxygen-induced neonatal rats", "how_it_was_run": "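Newborn rats kept 7 d in chamber alternating 80% and 10% O2 every 24 h (23 °C), then room air. Intravitreal injection of test agents on day 7, saline for model and control; eyes taken day 14, HE-stained 4 μm sections. Endothelial nuclei breaching retinal inner limiting membrane counted, averaged per section per eye (10 sections).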"}, "[2]": {"test_system": "collagen-induced arthritis", "assay": "Mouse collagen-induced arthritis (CIA) animal model", "format": "in vivo", "conditions": "DBA/1 mice CIA model, dose 4.0 mg/kg, subcutaneous from day 30, n=10"}, "adjuvant arthritis": {"test_system": "adjuvant arthritis", "assay": "Rat adjuvant arthritis (AA) animal model", "format": "in vivo, SD rats", "conditions": "4.0 mg/kg"}, "[3]": {"test_system": "human retinal capillary endothelial cells (HRCECs)", "assay": "MTT proliferation inhibition on HRCECs", "format": "cell-based", "conditions": "48 h; for A570 nm-A630 nm: mean±SD", "how_it_was_run": "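HRCECs seeded at 3.0×10^4 cells/mL, adhered overnight, then exposed to polypeptide for 48 h at 37 °C, 5% CO2. MTT added 4 h, formazan dissolved in DMSO, absorbance 570/630 nm; PIR (%) = 1 − treated/negative control, mean±SD of three independent runs.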"}, "splenic lymphocytes": {"test_system": "splenic lymphocytes", "assay": "Proliferation of splenic lymphocytes in mice (ConA, MTT)", "format": "cell-based", "conditions": "ConA-stimulated mouse splenic lymphocytes, 48 h", "how_it_was_run": "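Mouse splenocytes (5×10^6 cells/mL, RPMI 1640 with 10% calf serum, red cells lysed) stimulated with ConA plus varying polypeptide concentrations, with blank, ConA-only and Dex groups, 48 h at 37° C. MTT added for 4 h, formazan dissolved in DMSO, OD read at 570 nm; five replicates.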"}, "[4]": {"conditions": "intravenous in the tail once every five days from day 10, mean±SD"}}, "note": "Marks after values point to notes of the source that are not given here. Peptide text beside a SMILES is read from it. * marks the point of attachment. X65 = O=C1C=CC(=O)N1c1cccc(CCCCCCCCCCCCC(=O)*)c1", "data": [{"smiles": "C[C@H](NC(=O)CNC(=O)[C@H](CCCNC(=N)N)NC(=O)CCCCCCCCCCCCc1cccc(N2C(=O)C=CC2=O)c1)C(=O)N[C@@H](CC(=O)O)C(=O)N[C@@H](CCCNC(=N)N)C(=O)N[C@@H](C)C(=O)NCC(=O)NCC(=O)NCC(=O)NCC(=O)N[C@@H](CCCNC(=N)N)C(=O)NCC(=O)N[C@@H](CC(=O)O)C(=O)O", "note": "[X36] (X65-RGADRAGGGGRGD-OH)", "values": [{"measurement": "Nuclei count (retinal vascular endothelial nuclei, average per section per eyeball)", "setting": "[1]", "value": "8.726 ± 3.273"}, {"measurement": "Joint swelling degree (mm)", "setting": "[2]", "value": "0.74 ± 0.14", "unit": "mm"}, {"measurement": "Left and right paw swelling degree (mm)", "setting": "[2]", "value": "0.77 ± 0.13", "unit": "mm"}, {"measurement": "Clinical score", "setting": "[2]; highest score 16", "value": "8.86 ± 1.23"}, {"measurement": "Clinical score", "setting": "adjuvant arthritis; intravenous in the tail once every five days from day 10, four paws scored 0-4, max 16, mean±SD", "value": "5.71 ± 1.09"}, {"measurement": "Joint swelling degree", "setting": "adjuvant arthritis; [4]", "value": "0.81 ± 0.12", "unit": "mm"}, {"measurement": "Left and right paw swelling degree", "setting": "adjuvant arthritis; [4]", "value": "4.00 ± 0.44", "unit": "mm"}, {"measurement": "Inhibition rate (%)", "setting": "[3]; dose 0.05 μM", "value": 55.25, "unit": "%*"}, {"measurement": "A570 nm-A630 nm", "setting": "[3]; dose 0.05 μM", "value": "0.5915 ± 0.05135"}, {"measurement": "Inhibition rate (%)", "setting": "[3]; dose 0.1 μM", "value": 60.38, "unit": "%**"}, {"measurement": "A570 nm-A630 nm", "setting": "[3]; dose 0.1 μM", "value": "0.5237 ± 0.03194"}, {"measurement": "Inhibition rate (%)", "setting": "[3]; dose 0.2 μM", "value": 64.71, "unit": "%*"}, {"measurement": "A570 nm-A630 nm", "setting": "[3]; dose 0.2 μM", "value": "0.4664 ± 0.03733"}, {"measurement": "A570 nm/A630 nm", "setting": "splenic lymphocytes; polypeptide dose 0.05 μM", "value": "0.6051 ± 0.0633"}, {"measurement": "Inhibition rate (%)", "setting": "splenic lymphocytes; polypeptide dose 0.05 μM", "value": 10.41, "unit": "%"}, {"measurement": "A570 nm/A630 nm", "setting": "splenic lymphocytes; polypeptide dose 0.1 μM", "value": "0.4566 ± 0.1223"}, {"measurement": "Inhibition rate (%)", "setting": "splenic lymphocytes; polypeptide dose 0.1 μM", "value": 32.40, "unit": "%"}, {"measurement": "A570 nm/A630 nm", "setting": "splenic lymphocytes; polypeptide dose 0.2 μM", "value": "0.4401 ± 0.051"}, {"measurement": "Inhibition rate (%)", "setting": "splenic lymphocytes; polypeptide dose 0.2 μM", "value": 34.84, "unit": "%"}]}]}
